Columns and labels:
[1] = system: TNF-α production by LPS stimulated mouse peritoneal macrophages; test: TNF-α production inhibitory activity by LPS stimulated macrophages (ELISA); type: cell-based; conditions: LPS 10 μg/ml, 8 hours
Description: (1) Method of Measurement of TNF-α Production Inhibitory Activity by LPS Stimulated Macrophages
The following assay was used to evaluate the ability of the compound of the present invention to suppress TNF-α production by LPS stimulated macrophages according to Immuno pharmacol. 29, 121-127 (1995).
1) 6 to 10 week old female BALB/c mice were used, 2 ml portions of thioglycolate were intraperitoneally administered, and the abdominal cavities were washed by 10 ml of PBS after 4 days, whereby 1 to 2×10^7 peritoneal cells were obtained per mouse. These were suspended in a hemocyte solution (0.75% ammonium chloride, 17 mM tris-hydrochlorate buffer, pH7.2), centrifuged, then resuspended in an RPMI1640 medium including 10% fetal calf serum and seeded in a 96-well cell culture plate at a density of 1×10^5 cells/50 μl/well. Since these cells adhered strongly to the tissue culture plate and were positive in nonspecific esterase staining, they were used for the test as mouse peritoneal macrophages. Mouse peritoneal macrophages were precultured overnight at 37° C. in 5% CO2 for the experiment.
2) E. Coli (serum type 055:B5) derived LPS was dissolved in PBS in a concentration of 1 mg/ml, then sterilized by filtration. The test compound was dissolved in DMSO to make a 1000-fold concentration solution of the final concentration of use. 10 μl of the above LPS stock solution (final concentration 10 μg/ml) and 1 μl of the tested substance stock solution were added and mixed in 0.5 ml of RPMI1640 medium containing 10% fetal calf serum. This was added to the above cells at 50 μl/well and cultured for 8 hours. The cultured supernatant was recovered from each well and the TNF-α concentration was measured by the ELISA method (Cytoscreen® Immunoassay Kit Mouse TNF-α, BioSource International).

[2] = system: type IV phosphodiesterase; test: Type IV phosphodiesterase inhibiting activity (3H-cAMP hydrolysis, PDE IV fraction from U937 cells); type: biochemical; conditions: PDE IV fraction from human U937 cells, 30° C., 30 minutes
Description: (1) Method of Measurement of Type IV Phosphodiesterase Inhibiting Activity
The following assay was used to evaluate the ability of the compound of the present invention to suppress type IV phosphodiesterase, according to Biochemical.
1) Type IV phosphodiesterase activity fractions were prepared as follows. Human histiocytic lymphoma cell line U937 was cultured in an RPMI1640 medium containing 10% fetal calf serum to obtain 10^9 cells of U937. The cells were recovered by centrifugation and suspended in 40 ml of buffer A (20 mM bis-tris, 5 mM 2-mercaptoethanol, 2 mM benzamidine, 2 mM EDTA, 0.1 mM 4-(2-aminoethyl)benzensulfonyl hydrochloride, 50 mM sodium acetate, pH=6.5). The cells were broken by a sonication and centrifuged (4° C., 10,000G, 10 minutes) to obtain a supernatent. This was filtered by a 0.45 μm filter to obtain the soluble fraction.
The soluble fraction obtained was applied into a 1×10 cm DEAE Sepharose column equalibrated with the buffer A. 120 ml of the buffer A containing a linear gradient solution of 0.05 to 1 M sodium acetate was used to separate the phosphodiesterase and recover 24 5-ml fractions. Each of the fractions was measured for the cAMP phosphodiesterase activity.
2) The test compound was reacted at a desired concentration in a reaction mixture containing 20 mM tris-HCl (pH 7.5), 1 mM MgCl2, 100 μM EDTA, 330 μg/ml calf serum albumin, 10 μg/ml 5′-nucleotidase, 0.4 μCi ^3H-cAMP ([…] cAMP) and the type IV phosphodiesterase stored solution at 30° C. for 30 minutes. QAE-Sephadex suspended in 10 mM of hepes-Na (pH-7.0) was added to the reaction mixture which was then allowed to stand for 5 minutes, then the supernatant was obtained, QAE-Sephadex was further added, to the supernatant, and was allowed to stand for 5 minutes, then the supernatant was obtained and measured for radioactivity.

Row | Compound | IC50 ([1]; Peritoneal macrophage) [µM] | IC50 [2] [µM] | IC50 [1] [µM]
1 | O=C(Nc1ccncc1)c1cn(-c2cccnc2)c2ncccc2c1=O [Example 135, 1-(3-Pyridyl)-N-(4-pyridyl)-1,4-dihydro[1,8]naphthylidin-4-one-3-carboxamide] | 0.5 | 0.13 | –
2 | Cc1cccc(NC(=O)c2cn(-c3ccc(F)cc3)c3ncccc3c2=O)c1 [Example 70, 1-(4-Fluororhenyl)-N-(3-tolyl)-1,4-dihydro[1,8]naohthylidin-4-one-3-carboxamide] | 1 | 0.61 | –
3 | NC(=O)c1cccc(NC(=O)c2cn(-c3ccc(F)cc3)c3ncccc3c2=O)c1 [Example 87, N-[3-(aminocarbonyl)phenyl]-1-(4-fluorophenyl)-1,4-dihydro[1,8]naphthylidin-4-one-3-carboxamide] | 0.2 | 0.072 | –
4 | Nc1ccccc1NC(=O)c1cn(-c2ccc(F)cc2)c2ncccc2c1=O [Example 90, N-(2-aminophenyl)-1-(4-fluorophenyl)-1,4-dihydro[1,8]naphthylidin-4-one-3-carboxamide] | 0.5 | 0.096 | –
5 | Cc1cnccc1NC(=O)c1cn(-c2ccncc2)c2ncccc2c1=O [Example 140, N-(3-Methylpyridin-4-yl)-1-(4-pyridyl)-1,4-dihydro[1,8]naphthylidin-4-one-3-carboxamide] | – | 0.036 | 0.005
6 | O=C(Nc1c(Cl)cncc1Cl)c1cn(-c2nccs2)c2ncccc2c1=O [Example 152, N-(3,5-Dichloropyridin-4-yl)-1-(2-thiazolyl)-1,4-dihydro[1,8]naphthylidin-4-one-3-carboxamide] | 0.03 | 0.0059 | –
7 | O=C(Nc1ccccc1[N+](=O)[O-])c1cn(-c2ccc(F)cc2)c2ncccc2c1=O [Example 93, 1-(4-fluorophenyl)-N-(2-nitrophenyl)-1,4-dihydro[1,8]naohthylidin-4-one-3-carboxamide] | 0.03 | 0.016 | –
8 | O=C(NCCO)c1cn(-c2ccc(F)cc2)c2ncccc2c1=O [Example 58, 1-(4-Fluorothenyl)-N-(2-hydroxyethyl)-1,4-dihydro[1,8]naphthylidin-4-one-3-carboxamide] | 0.42 | 0.42 | –
9 | O=C(Nc1cccc(CO)c1)c1cn(-c2ccc(F)cc2)c2ncccc2c1=O [Example 79, 1-(4-fluorophenyl)-N-(3-hydroxymethylphenyl)-1,4-dihydro[1,8]naohthylidin-4-one-3-carboxamide] | 0.3 | 0.055 | –
10 | O=C(Nc1cccnc1)c1cn(-c2ccncc2)c2ncccc2c1=O [Example 138, N-(3-Pyridyl)-1-(4-pyridyl)-1,4-dihydro[1,8]naphthylidin-4-one-3-carboxamide] | 0.4 | 0.044 | –
11 | O=C(Nc1cnccn1)c1cn(-c2ccc(F)cc2)c2ncccc2c1=O [Example 109, 1-(4-Fluorophenyl)-N-pyrazinyl-1,4-dihydro[1,8]naphthylidin-4-one-3-carboxamide] | 0.4 | 0.4 | –
12 | O=C(Nc1ccncc1)c1cn(-c2ccccn2)c2ncccc2c1=O [Example 132, N-(4-Pyridyl)-1-(2-pyridyl)-1,4-dihydro[1,8]naphthylidin-4-one-3-carboxamide] | 1 | 0.76 | –
13 | O=C(Nc1ccc(F)cc1)c1cn(-c2ccc(F)cc2)c2ncccc2c1=O [Example 98, 1,N-bis-(4-fluorophenyl)-1,4-dihydro[1,8]naphthylidin-4-one-3-carboxamide] | 1 | 0.16 | –
14 | O=C(Nc1c(Cl)ncnc1Cl)c1cn(-c2ccc(F)cc2)c2ncccc2c1=O [Example 108, 1-(4-Fluorophenyl)-N-(4,6-dichloropyrimidine-5-yl)-1,4-dihydro[1,8]naphthylidin-4-one-3-carboxamide] | 1 | 0.0046 | –
15 | O=C(O)c1cccc(NC(=O)c2cn(-c3ccc(F)cc3)c3ncccc3c2=O)c1 [Example 86, 3-[{[1-(4-Fluorophenyl)-1,4-dihydro[1,8]naohthylidin-4-one-3-yl]carbonyl}amino]benzoic Acid] | 0.4 | 0.032 | –
16 | O=C(Nc1cccc2ncccc12)c1cn(-c2ccc(F)cc2)c2ncccc2c1=O [Example 113, 1-(4-Fluorophenyl)-N-(5-quinolyl)-1,4-dihydro [1,8]naphthylidin-4-one-3-carboxamide] | 0.06 | 0.044 | –
17 | O=C(Nc1cccc([N+](=O)[O-])c1)c1cn(-c2ccc(F)cc2)c2ncccc2c1=O [Example 94, 1-(4-Fluorophenyl)-N-(3-nitrophenyl)-1,4-dihydro[1,8]naphthylidin-4-one-3-carboxamide] | 0.5 | 0.35 | –
18 | O=C(Nc1cccnc1)c1cn(-c2cccnc2)c2ncccc2c1=O [Example 134, 1,N-bis-(3-Pyridyl)-1,4-dihydro[1,8]naphthylidin-4-one-3-carboxamide] | 0.8 | 0.47 | –
19 | CC(C)CNC(=O)c1cn(-c2ccc(F)cc2)c2ncccc2c1=O [Example 55, 1-(4-Fluorophenyl)-N-isobutyl-1,4-dihydro[1,8]naphthylidin-4-one-3-carboxamide] | 0.1 | 0.031 | –
20 | O=C(Nc1ccncn1)c1cn(-c2ccc(F)cc2)c2ncccc2c1=O [Example 107, 1-(4-Fluorophenyl)-N-(4-pyrimidyl)-1,4-dihydro[1,8]naphthylidin-4-one-3-carboxamide] | 1 | 0.52 | –
21 | O=C(NCC1CC1)c1cn(-c2ccc(F)cc2)c2ncccc2c1=O [Example 56, N-cyclopropylmethyl-1-(4-fluorophenyl)-1,4-dihydro[1,8]naohthylidin-4-one-3-carboxamide] | – | 0.026 | 0.004
22 | Cc1cccc(C)c1NC(=O)c1cn(-c2ccc(F)cc2)c2ncccc2c1=O [Example 72, 1-(4-Fluorophenyl)-N-(2,6-xylidyl)-1,4-dihydro[1,8]naphthylidin-4-one-3-carboxamide] | 0.01 | 0.18 | –
23 | CC(=O)c1cccc(NC(=O)c2cn(-c3ccc(F)cc3)c3ncccc3c2=O)c1 [Example 81, N-(3-acetophenyl)-1-(4-fluorophenyl)-1,4-dihydro[1,8]naphthylidin-4-one-3-carboxamide] | 0.5 | 0.11 | –
24 | O=C(Nc1ccncc1)c1cn(-c2ccc(OCc3ccccc3)nc2)c2ncccc2c1=O [Example 144, 1-(2-Benzyloxypyridin-5-yl)-N-(4-pyridyl)-1,4-dihydro[1,8]naphthylidin-4-one-3-carboxamide] | 0.7 | 0.14 | –
25 | NC(=O)c1cn(-c2ccc(F)cc2)c2ncccc2c1=O [Example 51, 1-(4-Fluorophenyl)-1,4-dihydro[1,8]naphthylidin-4-one-3-carboxamide] | 0.4 | 1.4 | –
26 | O=C(Nc1c(Cl)cncc1Cl)c1cn(-c2ccccc2)c2ncccc2c1=O [Example 118, N-(3,5-Dichloropyridin-4-yl)-1-phenyl-1,4-dihydro[1,8]naphthylidin-4-one-3-carboxamide] | 0.0004 | 0.0002 | –
27 | O=C(Nc1cccc2cnccc12)c1cn(-c2ccc(F)cc2)c2ncccc2c1=O [Example 114] | 0.1 | 0.21 | –
28 | CC(=O)c1ccccc1NC(=O)c1cn(-c2ccc(F)cc2)c2ncccc2c1=O [Example 80, N-(2-acetophenyl)-1-(4-fluorophenyl)-1,4-dihydro[1,8]naphthylidin-4-one-3-carboxamide] | 0.1 | 0.11 | –
29 | O=C(Nc1ccc(O)cc1)c1cn(-c2ccc(F)cc2)c2ncccc2c1=O [Example 75, 1-(4-Fluorophenyl)-N-(4-hydroxyhenyl)-1,4-dihydro[1,8]naphthylidin-4-one-3-arboxamide] | 0.2 | 0.1 | –

From US6541480B2, “1-aryl-1,8-naphthylidin-4-one derivative as type IV phosphodiesterase inhibitor” (Suntory Limited, priority 1997, dated 2003)
